What all share (assay type): in vivo, human cells in mice
The subject of data set [1] is human tumour cell xenografts. Kind of data set: Human tumour cell xenografts in mice, compiled tumour weights (FIG. 29). For orientation: A xenograft is tissue or cells of one species grown in another, often human tumour cells in immunodeficient mice.
Experimental: CD-1 athymic female nude mice, BALB/c nu/nu nude mice, SCID, and SCID beige mice were purchased from Charles River Laboratories (Montreal, Canada) and experiments were typically initiated when the mice were 6-7 weeks old. Human tumour cells were grown in appropriate growth medium and 3×10^6−1×10^7 cells suspended in 100 μl of PBS were subcutaneously injected into the right flank of the animals with a 23 gauge needle (cell number indicated in the figure legends). Each experimental group typically contained 10 mice. After the size of tumour reached a mean tumour volume of 50-100 mm^3, treatment was initiated. Antisense oligonucleotides (dissolved in saline) were administered by bolus infusion into the tail vein of animal every other day at the indicated dose. Anti-tumour activity was estimated by the measurement of tumour volume with a calliper at two-three day intervals. Tumour volume was calculated by a formula L×W×H/2, where L indicates length, W indicates width and H indicates height. Within 24 hours after the last treatment, the animals were sacrificed and tumour and body weights were measured.
Each data point represents tumour weight and standard error. […]
The subject of data set [2] is HT-29 human colon cancer cells. Kind of data set: HT-29 colon tumour xenograft in nude mice, combination with CPT-11 (1.2). As to conditions: SEQ ID NO:1 10 mg/kg i.v. every other day, CPT-11 20 mg/kg i.p. days 7-12. An excerpt:
All treatments were stopped at day 22. […] All treatments were stopped at day 32. […] All treatments were stopped at day 36.

For data set [3], the system named is MDA-MB-231 human breast cancer cells. Kind of data set: MDA-MB-231 breast tumour xenograft in CD-1 nude mice, combination with taxol or doxorubicin (1.7). As to conditions: doxorubicin 5 mg/kg i.v. weekly.

“Also recorded” adds a separate entry of the source.

Data on 1 substance can be found in US7968526B2, “Antisense oligonucleotides directed to ribonucleotide reductase R2 and uses thereof in the treatment of cancer” (Lorus Therapeutics Inc., priority 2003, dated 2011).

Regarding “5′-GGCTAAATCGCTCCACCAAG-3′ (all phosphorothioate, sugars by position and methylation of C not given here) [SEQ ID NO: 1, fully phosphorothioated antisense oligonucleotide that hybridizes to the coding region of R2 mRNA]”, the “Effect on tumour growth and endpoint weight” value in data set [1] (all cancer cell lines tested) is “significant decrease in tumour growth (volume over time) and endpoint weight”. In addition, the “p, difference in tumour weight between control and oligonucleotide treated groups” value in data set [1] (range of human tumour xenografts, 2.5 mg/kg to 10 mg/kg i.v. every second day, all cases) is listed as below 0.05. Besides, the “Tumour weight as % of saline control” value in data set [2] (HT-29 (colon), CD-1) is on record as 19%; in data set [3] (MDA-MB-231 (breast), CD-1, SEQ ID NO:1 10 mg/kg i.v. every other day, Taxol 10 mg/kg i.v. weekly), 12.6%. In addition, in data set [2] (HT-29, CD-1 nude mice), the “Antitumour effect (tumour weight, FIG. 2)” value is “significant delay of tumour growth compared to saline control; also recorded: superior to the inhibitory effects observed with CPT-11 alone”. Further, the “Antitumour effect (tumour weight / volume, FIG. 7)” value in data set [3] (MDA-MB-231, CD-1 nude mice, oligonucleotides 10 mg/kg i.v. every other day, taxol 10 mg/kg) was “delay of tumour growth compared to saline control in all three experiments; also recorded: superior to the inhibitory effects observed with taxol or doxorubicin alone”.
